# Test results: PubChem BioAssay (NCI)
#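 The compound was tested at five concentrations on cells cultured in 96-well plates, with a 48-hour exposure period. TGI: total growth inhibition.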
# Tests used:
# Assay in all cases: NCI-60 cell line screen, 48 h
# 786-0 renal = tested on: 786-0 renal
# COLO 205 colon = tested on: COLO 205 colon
# HCT-116 colon = tested on: HCT-116 colon
# HT29 colon = tested on: HT29 colon
# IGROV1 ovarian = tested on: IGROV1 ovarian
# KM12 colon = tested on: KM12 colon
# MOLT-4 leukemia = tested on: MOLT-4 leukemia
# SK-MEL-28 melanoma = tested on: SK-MEL-28 melanoma
# SK-MEL-5 melanoma = tested on: SK-MEL-5 melanoma
# SR leukemia = tested on: SR leukemia
SMILES,TGI (786-0 renal) [µM],TGI (COLO 205 colon) [µM],TGI (HCT-116 colon) [µM],TGI (HT29 colon) [µM],TGI (IGROV1 ovarian) [µM],TGI (KM12 colon) [µM],TGI (MOLT-4 leukemia) [µM],TGI (SK-MEL-28 melanoma) [µM],TGI (SK-MEL-5 melanoma) [µM],TGI (SR leukemia) [µM]
C=C1C(O)C[C@H](OC(C)=O)[C@]2(C)C1C(OC(C)=O)[C@]1(C(C)(C)O)CC(O)C(C)=C1[C@@H](OC(=O)c1ccccc1)C2OC(C)=O (stereo not given in full),> 10,> 10,> 10,> 10,> 10,> 10,> 10,> 10,> 10,> 10
NCC(O)CNC(=O)c1ccc(-c2ccc(-c3ccc(C(=O)NCC(O)CN)cc3)o2)cc1 (stereo not given),48.5,> 100,52.4,> 100,> 100,> 100,> 100,> 100,> 100,> 100
O=C(c1ccc(Cl)cc1)N(C(=S)N1CCN(c2ccccn2)CC1)C1CCCCC1,> 100,> 100,> 100,> 100,> 100,> 100,96.5,> 100,> 100,> 100
O=C(CCC=C(S(=O)(=O)c1ccccc1)S(=O)(=O)c1ccccc1)c1ccccc1,11.8,19.8,13.9,17.5,31,> 100,> 100,34.6,19.8,82.6
